What was measured:
[1] = target: Mitogen-activated protein kinase kinase kinase 14 (Homo sapiens) (UniProt Q99558); conditions: Compound concentration 1000.0 nM
[2] = target: Tyrosine-protein kinase Lyn (Homo sapiens) (UniProt P07948); conditions: Compound concentration 1000.0 nM
[3] = test system: Receptor-type tyrosine-protein kinase FLT3 (Homo sapiens), P36888 [N841I]; conditions: Compound concentration 1000.0 nM
[4] = target: Protein kinase C iota type (Homo sapiens) (UniProt P41743); conditions: Compound concentration 1000.0 nM
[5] = target: Dual specificity testis-specific protein kinase 1 (Homo sapiens) (UniProt Q15569); conditions: Compound concentration 1000.0 nM
Dual specificity testis-specific protein kinase 1 (Homo sapiens), sequence (Q15569 whole entry, looked up): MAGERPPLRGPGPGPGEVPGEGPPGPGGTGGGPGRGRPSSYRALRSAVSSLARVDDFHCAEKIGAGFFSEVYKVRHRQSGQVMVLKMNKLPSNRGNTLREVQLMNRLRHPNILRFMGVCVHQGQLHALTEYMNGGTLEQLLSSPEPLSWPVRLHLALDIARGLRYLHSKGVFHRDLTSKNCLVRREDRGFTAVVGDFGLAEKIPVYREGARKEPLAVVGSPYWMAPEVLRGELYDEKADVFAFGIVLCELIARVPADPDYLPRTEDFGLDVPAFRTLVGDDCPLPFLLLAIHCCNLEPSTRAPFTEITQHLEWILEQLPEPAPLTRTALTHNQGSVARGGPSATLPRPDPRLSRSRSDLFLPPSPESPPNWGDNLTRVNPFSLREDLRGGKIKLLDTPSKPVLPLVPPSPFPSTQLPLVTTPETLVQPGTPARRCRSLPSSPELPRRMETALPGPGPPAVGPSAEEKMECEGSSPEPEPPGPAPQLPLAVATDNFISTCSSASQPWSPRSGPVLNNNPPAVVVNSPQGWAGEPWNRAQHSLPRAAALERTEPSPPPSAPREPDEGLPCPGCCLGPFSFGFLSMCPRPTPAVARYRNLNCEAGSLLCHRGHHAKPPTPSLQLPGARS

[6] = target: Leukocyte tyrosine kinase receptor (Homo sapiens) (UniProt P29376); conditions: Compound concentration 1000.0 nM
[7] = target: Ribosomal protein S6 kinase beta-1 (Homo sapiens) (UniProt P23443); conditions: Compound concentration 1000.0 nM
[8] = target: Mitotic checkpoint serine/threonine-protein kinase BUB1 (Homo sapiens) (UniProt O43683); conditions: Compound concentration 1000.0 nM
[9] = target: LIM domain kinase 2 (Homo sapiens) (UniProt P53671); conditions: Compound concentration 1000.0 nM
[10] = test system: Tyrosine-protein kinase ABL1 (Homo sapiens), P00519 [T315I]; conditions: Compound concentration 1000.0 nM
[11] = target: Serine/threonine-protein kinase Nek2 (Homo sapiens) (UniProt P51955); conditions: Compound concentration 1000.0 nM
[12] = target: Prostaglandin G/H synthase 2 (Homo sapiens) (UniProt P35354); assay: Cyclooxygenase 2 (human) CEREP ligand profiling; conditions: Compound concentration 10.0 uM
[13] = target: Serine/threonine-protein kinase PAK 1 (Homo sapiens) (UniProt Q13153); conditions: Compound concentration 1000.0 nM
[14] = target: Serine/threonine-protein kinase DCLK2 (Homo sapiens) (UniProt Q8N568); conditions: Compound concentration 1000.0 nM
[15] = target: Mu-type opioid receptor (Homo sapiens) (UniProt P35372); conditions: Compound concentration 10.0 uM
Mu-type opioid receptor (Homo sapiens), sequence (P35372 whole entry): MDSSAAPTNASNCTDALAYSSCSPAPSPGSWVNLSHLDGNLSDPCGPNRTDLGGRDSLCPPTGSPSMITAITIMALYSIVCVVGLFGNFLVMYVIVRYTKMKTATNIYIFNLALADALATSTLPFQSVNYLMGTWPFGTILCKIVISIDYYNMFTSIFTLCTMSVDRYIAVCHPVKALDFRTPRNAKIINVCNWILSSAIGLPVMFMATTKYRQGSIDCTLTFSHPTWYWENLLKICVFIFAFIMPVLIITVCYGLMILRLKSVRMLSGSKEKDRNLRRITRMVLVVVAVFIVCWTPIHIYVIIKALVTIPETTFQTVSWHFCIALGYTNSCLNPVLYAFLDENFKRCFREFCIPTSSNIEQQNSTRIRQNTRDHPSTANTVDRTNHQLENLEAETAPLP

[16] = target: Wee1-like protein kinase 2 (Homo sapiens) (UniProt P0C1S8); conditions: Compound concentration 1000.0 nM
[17] = target: 3-phosphoinositide-dependent protein kinase 1 (Homo sapiens) (UniProt O15530); conditions: Compound concentration 1000.0 nM
[18] = target: Non-receptor tyrosine-protein kinase TYK2 (Homo sapiens) (UniProt P29597); conditions: Compound concentration 1000.0 nM
[19] = test system: Mast/stem cell growth factor receptor Kit (Homo sapiens), P10721 [D816H]; conditions: Compound concentration 1000.0 nM
[20] = target: MAP kinase-activated protein kinase 2 (Homo sapiens) (UniProt P49137); conditions: Compound concentration 1000.0 nM
[21] = target: Tyrosine-protein kinase ABL1 (Homo sapiens) (UniProt P00519); conditions: Compound concentration 1000.0 nM
[22] = target: Mitogen-activated protein kinase 6 (Homo sapiens) (UniProt Q16659); conditions: Compound concentration 1000.0 nM
[23] = target: Serine/threonine-protein kinase tousled-like 1 (Homo sapiens) (UniProt Q9UKI8); conditions: Compound concentration 1000.0 nM
Serine/threonine-protein kinase tousled-like 1 (Homo sapiens), sequence (Q9UKI8 whole entry): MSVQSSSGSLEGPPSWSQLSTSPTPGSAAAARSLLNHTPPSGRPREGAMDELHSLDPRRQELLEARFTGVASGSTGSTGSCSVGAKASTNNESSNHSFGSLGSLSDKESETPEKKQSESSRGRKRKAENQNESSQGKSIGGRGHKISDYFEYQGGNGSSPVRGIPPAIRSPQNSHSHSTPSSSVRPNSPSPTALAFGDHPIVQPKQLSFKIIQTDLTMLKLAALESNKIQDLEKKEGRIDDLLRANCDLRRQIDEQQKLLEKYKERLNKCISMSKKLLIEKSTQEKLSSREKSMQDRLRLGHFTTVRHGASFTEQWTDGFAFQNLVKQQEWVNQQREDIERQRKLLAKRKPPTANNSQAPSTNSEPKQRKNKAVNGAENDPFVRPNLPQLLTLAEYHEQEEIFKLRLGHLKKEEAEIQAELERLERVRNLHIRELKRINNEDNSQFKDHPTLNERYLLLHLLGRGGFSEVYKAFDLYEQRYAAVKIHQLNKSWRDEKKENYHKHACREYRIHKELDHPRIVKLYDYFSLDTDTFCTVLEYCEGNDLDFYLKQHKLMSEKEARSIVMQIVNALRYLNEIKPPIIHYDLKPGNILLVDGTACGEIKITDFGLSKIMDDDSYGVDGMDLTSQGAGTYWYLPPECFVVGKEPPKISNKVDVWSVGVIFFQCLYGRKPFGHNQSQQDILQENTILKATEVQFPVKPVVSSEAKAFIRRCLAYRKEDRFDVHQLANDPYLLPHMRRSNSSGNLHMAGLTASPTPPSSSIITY

[24] = target: Serine/threonine-protein kinase LATS1 (Homo sapiens) (UniProt O95835); conditions: Compound concentration 1000.0 nM
[25] = target: Mitogen-activated protein kinase kinase kinase 13 (Homo sapiens) (UniProt O43283); conditions: Compound concentration 1000.0 nM
[26] = target: Serine/threonine-protein kinase MRCK gamma (Homo sapiens) (UniProt Q6DT37); conditions: Compound concentration 1000.0 nM
[27] = test system: Epidermal growth factor receptor (Homo sapiens), P00533 [UNDEFINED MUTATION]; conditions: Compound concentration 1000.0 nM
Epidermal growth factor receptor (Homo sapiens), P00533 [UNDEFINED MUTATION], sequence (P00533 whole entry, looked up, change not shown): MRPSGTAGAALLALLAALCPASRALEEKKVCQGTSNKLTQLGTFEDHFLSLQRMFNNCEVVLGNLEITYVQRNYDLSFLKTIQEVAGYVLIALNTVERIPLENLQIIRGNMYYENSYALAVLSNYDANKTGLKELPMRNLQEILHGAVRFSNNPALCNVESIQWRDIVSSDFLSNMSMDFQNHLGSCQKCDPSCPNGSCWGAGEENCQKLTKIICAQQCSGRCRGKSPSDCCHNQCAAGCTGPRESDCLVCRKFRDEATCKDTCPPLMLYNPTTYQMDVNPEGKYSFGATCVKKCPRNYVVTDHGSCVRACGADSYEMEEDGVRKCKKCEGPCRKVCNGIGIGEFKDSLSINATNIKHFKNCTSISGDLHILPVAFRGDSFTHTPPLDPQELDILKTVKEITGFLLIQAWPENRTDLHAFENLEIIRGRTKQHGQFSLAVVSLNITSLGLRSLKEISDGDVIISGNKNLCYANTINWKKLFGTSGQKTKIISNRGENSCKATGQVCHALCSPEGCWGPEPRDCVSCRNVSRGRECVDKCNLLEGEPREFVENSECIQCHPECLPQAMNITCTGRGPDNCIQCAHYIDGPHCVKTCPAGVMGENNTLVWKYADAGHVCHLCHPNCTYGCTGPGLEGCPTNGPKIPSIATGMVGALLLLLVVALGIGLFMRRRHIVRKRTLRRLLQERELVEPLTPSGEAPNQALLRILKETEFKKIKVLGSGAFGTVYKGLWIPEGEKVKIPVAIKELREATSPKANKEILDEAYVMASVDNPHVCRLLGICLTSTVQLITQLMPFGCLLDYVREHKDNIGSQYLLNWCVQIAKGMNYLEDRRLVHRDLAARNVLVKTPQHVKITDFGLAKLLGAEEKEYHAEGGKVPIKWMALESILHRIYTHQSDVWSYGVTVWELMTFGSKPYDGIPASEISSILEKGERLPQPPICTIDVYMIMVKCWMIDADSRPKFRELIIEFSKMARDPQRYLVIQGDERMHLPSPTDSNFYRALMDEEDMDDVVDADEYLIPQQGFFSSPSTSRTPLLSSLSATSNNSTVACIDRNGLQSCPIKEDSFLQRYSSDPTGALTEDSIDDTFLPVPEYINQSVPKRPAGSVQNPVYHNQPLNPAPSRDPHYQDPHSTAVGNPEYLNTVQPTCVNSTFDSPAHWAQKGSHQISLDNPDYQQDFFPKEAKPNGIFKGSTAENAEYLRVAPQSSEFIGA

[28] = target: Serine/threonine-protein kinase TNNI3K (Homo sapiens) (UniProt Q59H18); conditions: Compound concentration 1000.0 nM
[29] = target: Rhodopsin kinase GRK7 (Homo sapiens) (UniProt Q8WTQ7); conditions: Compound concentration 1000.0 nM
[30] = target: cGMP-dependent protein kinase 2 (Homo sapiens) (UniProt Q13237); conditions: Compound concentration 1000.0 nM
[31] = target: Mitogen-activated protein kinase 13 (Homo sapiens) (UniProt O15264); conditions: Compound concentration 1000.0 nM
Mitogen-activated protein kinase 13 (Homo sapiens), sequence (O15264 whole entry, canonical isoform): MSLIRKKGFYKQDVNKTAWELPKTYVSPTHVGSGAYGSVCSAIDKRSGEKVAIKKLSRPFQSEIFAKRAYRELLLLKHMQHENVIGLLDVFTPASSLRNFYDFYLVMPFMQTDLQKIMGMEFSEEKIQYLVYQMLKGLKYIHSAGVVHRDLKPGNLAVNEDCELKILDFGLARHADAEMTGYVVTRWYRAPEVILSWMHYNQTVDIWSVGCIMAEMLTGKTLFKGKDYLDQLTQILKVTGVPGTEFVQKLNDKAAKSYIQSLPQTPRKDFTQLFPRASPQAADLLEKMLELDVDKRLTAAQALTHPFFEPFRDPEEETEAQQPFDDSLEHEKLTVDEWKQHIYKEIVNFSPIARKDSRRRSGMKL

[32] = test system: Phosphatidylinositol 4,5-bisphosphate 3-kinase catalytic subunit alpha isoform (Homo sapiens), P42336 [E545A]; conditions: Compound concentration 1000.0 nM
[33] = target: Bone morphogenetic protein receptor type-1A (Homo sapiens) (UniProt P36894); conditions: Compound concentration 1000.0 nM
Bone morphogenetic protein receptor type-1A (Homo sapiens), sequence (P36894 whole entry): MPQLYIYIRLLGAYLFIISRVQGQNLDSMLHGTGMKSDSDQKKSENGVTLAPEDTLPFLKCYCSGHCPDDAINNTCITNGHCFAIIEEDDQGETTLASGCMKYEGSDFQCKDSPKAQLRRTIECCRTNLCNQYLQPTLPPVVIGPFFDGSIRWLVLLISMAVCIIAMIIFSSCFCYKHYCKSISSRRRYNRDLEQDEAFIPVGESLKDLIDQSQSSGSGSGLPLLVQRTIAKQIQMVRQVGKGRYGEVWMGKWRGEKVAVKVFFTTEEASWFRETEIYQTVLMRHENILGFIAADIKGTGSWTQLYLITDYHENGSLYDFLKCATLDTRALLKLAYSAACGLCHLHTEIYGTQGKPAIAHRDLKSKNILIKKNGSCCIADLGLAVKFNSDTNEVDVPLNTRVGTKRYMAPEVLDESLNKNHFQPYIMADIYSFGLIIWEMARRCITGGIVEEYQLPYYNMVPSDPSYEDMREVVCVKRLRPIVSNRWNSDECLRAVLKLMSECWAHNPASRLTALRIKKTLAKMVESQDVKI

[34] = target: Serine/threonine-protein kinase 3 (Homo sapiens) (UniProt Q13188); conditions: Compound concentration 1000.0 nM
[35] = target: Serine/threonine-protein kinase 25 (Homo sapiens) (UniProt O00506); conditions: Compound concentration 1000.0 nM
[36] = target: Rho-associated protein kinase 2 (Homo sapiens) (UniProt O75116); conditions: Compound concentration 1000.0 nM
[37] = target: Mitogen-activated protein kinase kinase kinase 9 (Homo sapiens) (UniProt P80192); conditions: Compound concentration 1000.0 nM
[38] = target: Serine/threonine-protein kinase 26 (Homo sapiens) (UniProt Q9P289); conditions: Compound concentration 1000.0 nM
[39] = target: Mitogen-activated protein kinase kinase kinase 11 (Homo sapiens) (UniProt Q16584); conditions: Compound concentration 1000.0 nM
[40] = test system: Mast/stem cell growth factor receptor Kit (Homo sapiens), P10721 [A829P]; conditions: Compound concentration 1000.0 nM
[41] = target: Serine/threonine-protein kinase Nek10 (Homo sapiens) (UniProt Q6ZWH5); conditions: Compound concentration 1000.0 nM
Serine/threonine-protein kinase Nek10 (Homo sapiens), sequence (Q6ZWH5 whole entry): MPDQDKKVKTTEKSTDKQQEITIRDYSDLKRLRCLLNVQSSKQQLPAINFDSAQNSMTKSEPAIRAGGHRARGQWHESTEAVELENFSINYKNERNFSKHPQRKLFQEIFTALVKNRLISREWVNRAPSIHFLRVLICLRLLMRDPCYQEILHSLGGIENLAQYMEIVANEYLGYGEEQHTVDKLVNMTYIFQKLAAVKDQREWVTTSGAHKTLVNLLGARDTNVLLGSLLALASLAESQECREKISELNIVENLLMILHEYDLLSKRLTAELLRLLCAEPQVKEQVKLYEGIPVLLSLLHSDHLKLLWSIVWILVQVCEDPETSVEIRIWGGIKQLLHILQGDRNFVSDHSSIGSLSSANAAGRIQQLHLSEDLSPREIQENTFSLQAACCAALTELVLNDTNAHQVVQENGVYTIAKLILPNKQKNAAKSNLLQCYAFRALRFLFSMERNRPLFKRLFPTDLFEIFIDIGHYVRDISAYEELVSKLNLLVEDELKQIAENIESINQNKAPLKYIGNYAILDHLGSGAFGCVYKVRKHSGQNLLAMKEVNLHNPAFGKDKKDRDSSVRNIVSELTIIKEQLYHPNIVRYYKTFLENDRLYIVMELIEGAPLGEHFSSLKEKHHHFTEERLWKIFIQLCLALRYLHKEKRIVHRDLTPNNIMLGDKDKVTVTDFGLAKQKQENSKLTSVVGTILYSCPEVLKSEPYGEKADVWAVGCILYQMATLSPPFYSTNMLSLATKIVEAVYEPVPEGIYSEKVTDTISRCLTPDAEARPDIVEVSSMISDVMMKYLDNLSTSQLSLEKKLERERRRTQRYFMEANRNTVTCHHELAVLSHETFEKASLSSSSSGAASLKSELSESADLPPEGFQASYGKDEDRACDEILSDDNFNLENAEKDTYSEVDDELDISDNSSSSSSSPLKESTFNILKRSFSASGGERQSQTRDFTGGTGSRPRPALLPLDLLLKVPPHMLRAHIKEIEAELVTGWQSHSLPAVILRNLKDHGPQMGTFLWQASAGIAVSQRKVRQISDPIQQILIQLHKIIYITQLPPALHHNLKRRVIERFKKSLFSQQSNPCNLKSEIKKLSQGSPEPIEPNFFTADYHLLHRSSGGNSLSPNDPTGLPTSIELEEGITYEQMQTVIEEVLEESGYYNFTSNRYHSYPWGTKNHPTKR

C[C@H](c1ccc(F)cc1)N(Cc1cccc(C(=O)O)c1)C(=O)c1cnc2ccccc2c1 [PF-05105679]
inactive: residual activity [1] 100% | residual activity [2] 100% | residual activity [3] 62% | residual activity [4] 100% | residual activity [5] 100% | residual activity [6] 90% | residual activity [7] 100% | residual activity [8] 89% | residual activity [9] 100% | residual activity [10] 75% | residual activity [11] 94% | inhibition [12] 21% | residual activity [13] 100% | residual activity [14] 100% | inhibition [15] 1.23% | residual activity [16] 100% | residual activity [17] 100% | residual activity [18] 92% | residual activity [19] 100% | residual activity [20] 85% | residual activity [21] 76% | residual activity [22] 100% | residual activity [23] 97% | residual activity [24] 100% | residual activity [25] 75% | residual activity [26] 100% | residual activity [27] 100% | residual activity [28] 97% | residual activity [29] 100% | residual activity [30] 100% | residual activity [31] 95% | residual activity [32] 100% | residual activity [33] 100% | residual activity [34] 100% | residual activity [35] 100% | residual activity [36] 100% | residual activity [37] 100% | residual activity [38] 79% | residual activity [39] 100% | residual activity [40] 92% | residual activity [41] 96%

— ChEMBL document CHEMBL4507296 (2021)
